Entries after “also recorded” stand apart in the source; their conditions may differ.
How the values were obtained:
[1] = system: primary rat neuronal cortical culture exposed to NMDA; assay: Neuroprotection from NMDA mediated cell death in primary neuronal culture (LDH release); assay type: cell-based; conditions: for reduced LDH release: concentration not given
Description: Peptides of 5 amino acids in length were applied to one or more samples of cells in parallel at concentrations ranging from about 0 to about 50 μM, such as 0.3, 3, and 30 μM. The peptides AL-10-1 (SEQ ID NO:18) and VL-17-9 (SEQ ID NO:19), which are longer peptides (12 amino acids each) were used as negative and positive controls, respectively. A series of peptides were screened in primary rat neuronal cortical culture exposed to NMDA using the method described in Aono et al., Neuroscience (2003) 116:437 and Aono et al., Neurobiology of Disease (2002) 11:214, both of which are incorporated by reference in their entirety (see Table 2). Neuroprotection from NMDA mediated cell death in primary neuronal culture was expressed as percentage decrease in LDH, 24 hours after exposure to NMDA compared to vehicle treated cultures (Table 2). LDH release is indicative of neuronal death after NMDA exposure. The peptide VR-55 (SEQ ID NO:4) reduced NMDA mediated excitotoxic cell death by approximately 19% at a concentration of 1 μM. […] The positive control peptide VL-17-9 reduced LDH release by 31%.
Dose response of the neuroprotection from NMDA excitotoxicity in primary neuronal culture was determined for ApoE mimetic peptide VR-55 (SEQ ID NO: 4). […] “0” indicates less than 5% suppression; “+” indicates 5-10% suppression; “++” indicates 11-20% suppression; and “+++” indicates greater than 20% suppression. In addition to VL-17-9, several other candidates had greater than 20% suppression, including VR-55, VL-5-1, VL-5-2 and VR-52.

[2] = system: mixed glial primary culture; assay: Suppression of TNF-α release in mixed glial primary culture after exposure to LPS; assay type: cell-based, murine; conditions: FIGS. 11A and 11B
Description: (§1) In vitro methods have been developed using cultured cells for evaluating the ability of a compound, such as a peptide, to suppress glial activation. Laskowitz et al., (2001) Exp. Neurol., 167:74-85. Glial cell cultures were grown and maintained under standard conditions. Cultured glial cells may include primary murine mixed glial cell cultures, murine BV-2 microglial cells, and human C3 microglial cells. Adherent glial cells were washed with OptiMEM® medium (available from Invitrogen Corp.) to remove serum and covered with fresh OptiMEM® medium containing peptide.
Larger peptides or proteins may need to be tested at higher concentrations to observe measurable suppression of glial activation. If using primary murine cells and BV-2 cells, cells are stimulated with 100 ng/ml E. coli LPS (available from Sigma-Aldrich Co.), and supernatant is collected six hours after LPS stimulation and assayed for nitrite (using a colorimetric Griess reagent system, available from Promega Corp.) and/or TNF-α (using a solid-phase ELISA kit, available from Invitrogen Corp.). If using human C3 cells, cells are stimulated with 200 μg/ml polyinosinic acid 5′ (available from Sigma-Aldrich Co.), and supernatant is collected 5 days after stimulation and assayed for TNF-α using a solid-phase ELISA kit (available from Invitrogen Corp.).
The protective activity against brain injury-downregulating CNS inflammatory response was determined for ApoE mimetic peptides, VR-55 (SEQ ID NO: 4), VL-5-1 (SEQ ID NO: 5) and VL-5-3 (SEQ ID NO: 10).

[3] = system: BV-2 murine microglial cells; assay: Suppression of LPS-stimulated TNF-α production in BV-2 microglial cells (ELISA); assay type: cell-based; conditions: peptide 0.3, 3 or 30 μM; LPS 100 ng/mL, six hours; FIG. 1; listed as SEQ ID NO:3
Description: Cultured BV-2 murine microglial cells were incubated with either the indicated concentrations of peptide (SEQ ID NO:3) or a negative control peptide (SEQ ID NO:13) and stimulated with lipopolysaccharide (LPS) (100 ng/mL) for six hours. After six hours, supernatants were harvested and the concentration of secreted TNF-α was measured by ELISA (**p<0.01; ANOVA).
as §1
Larger peptides or proteins may need to be tested at higher concentrations to observe measurable suppression of glial activation. […]
Murine BV-2 cultures were prepared and used to evaluate suppression of microglial activation as described in Example 1. […] Each sample was stimulated with LPS and assessed for TNF-α production as described in Example 1.

[4] = system: mice with traumatic brain injury; assay: Rotorod vestibulomotor function after traumatic brain injury; assay type: in vivo, mouse; conditions: 0.05 mg/kg or 0.2 mg/kg iv at 2 h and 6 h after traumatic brain injury
Description: An experimental murine model for traumatic brain injury was developed. Laskowitz, et al. (2010) J. Neurotrauma, 27:1983-95. Male mice (age 12-14 weeks) were anesthetized with 4.3% isoflurane in oxygen in an anesthesia induction box for 90 seconds. The trachea was intubated and the lungs mechanically ventilated with 1.4% isoflurane in a 50/50 mixture of oxygen and nitrogen. Body temperature was maintained at 37° C. using surface heating/cooling. The top of the skull was exposed by a midline incision to identify anatomical landmarks, and a concave 3-mm metallic disc was secured to the skull surface with an adhesive, directly midline and just caudal to the bregma. The disc diffused the energy of impact and reduced the incidence of depressed skull fracture to less than 10%. After general anesthesia, mice were positioned in a stereotactic device and the skull was exposed. A pneumatic impactor (diameter: 2.0 mm; available from Air-Power, Inc.) discharged at 6.8±0.2 m/s with a head displacement of 3 mm was used to deliver a single midline impact to the disc surface.
An experimental procedure for measuring neurological deficits was developed. An automated rotorod (available from Ugo Basile North America, Inc.) was used to assess vestibulomotor function. On the day before experimental induction of a neurological condition or injury (such as, for example, traumatic brain injury or intracerebral hemorrhage as described above), mice under went two consecutive conditioning trials at a set rotational speed (16 revolutions per minute) for 60 seconds followed by three additional trials with an accelerating rotational speed. The average time to fall from the rotating cylinder in the latter three trials was recorded as baseline latency. After injury, mice under went consecutive daily testing with three trials of accelerating rotational speed (intertribal interval of 15 minutes). Average latency to fall from the rod was recorded, and mice unable to grip the rod were scored with a latency of 0 seconds.
Groups of mice received either an ApoE mimetic peptide (SEQ ID NO:3; 0.05 mg/kg or 0.2 mg/kg) or carrier (saline) by intravenous tail vein injection at 2 hours and again at 6 hours after traumatic brain injury induced as described in Example 3. Each mouse was tested for vestibulomotor function by rotorod latency measured before and after injury, as described in Example 3.
Groups of mice received either an ApoE mimetic peptide (SEQ ID NO:4; 0.05 mg/kg) or carrier (saline) by intravenous tail vein injection at 2 hours and again at 6 hours after traumatic brain injury induced as described in Example 3. Each mouse was tested for vestibulomotor function by rotorod latency measured before and after injury, as described in Example 3. […]

Substance	percentage decrease in LDH, 24 hours after exposure to NMDA compared to vehicle treated cultures ([1]; peptide 1 μM)	suppression of LDH release, cumulative data (class) ([1]; peptide 1 μM)	also measured
Ac-VARKL-NH2 [VL-5-1]	24.48%	+++ (greater than 20% suppression)	percentage decrease in LDH, 24 hours after exposure to NMDA compared to vehicle treated cultures ([1]; peptide 0.1 μM): 18.57%; percentage decrease in LDH, 24 hours after exposure to NMDA compared to vehicle treated cultures ([1]; peptide 0.3 μM): 0.29%; release of inflammatory cytokine TNF-α [2]: inhibition of microglial TNF-α secretion; also recorded: suppress the release of inflammatory cytokine TNF-α
Ac-RSKKL-NH2 [RL-5-3]	−20.80%	0 (less than 5% suppression)	
Ac-RHKKL-NH2 [RL-5-1]	−2.85%	++ (11-20% suppression)	
Ac-VSKRR-NH2 [VR-53]	7.03%	+ (5-10% suppression)	TNF-α production relative to untreated cells or negative control peptide [3]: inhibition of microglial TNF-α secretion; also recorded: decreased TNF-α production; durability of effect on rotorod latency [4]: durable through the five-day testing period; vestibulomotor performance (rotorod latency) compared to carrier ([4]; FIG. 2, listed as SEQ ID NO:3): significantly improved vestibulomotor performance
Ac-RHKRR-NH2 [RR-5-1]	7.50%	+ (5-10% suppression)	
Ac-RARRL-NH2 [RL-5-2]	−5.23%	0 (less than 5% suppression)	
Ac-VARRL-NH2 [VL-5-3]	11.50%	++ (11-20% suppression)	percentage decrease in LDH, 24 hours after exposure to NMDA compared to vehicle treated cultures ([1]; peptide 0.1 μM): −19.04%; percentage decrease in LDH, 24 hours after exposure to NMDA compared to vehicle treated cultures ([1]; peptide 0.3 μM): −16.70%; release of inflammatory cytokine TNF-α [2]: inhibition of microglial TNF-α secretion; also recorded: suppress the release of inflammatory cytokine TNF-α
Ac-VSKKR-NH2 [VR-54, negative control peptide, reference compound]	−15.91%	++ (11-20% suppression)	
Ac-VARKL-NH2 [VL-5-2]	34.26%	+++ (greater than 20% suppression)	reduced LDH release [1]: 31%
Ac-RSKRR-NH2 [RR-5-2]	0.08%	0 (less than 5% suppression)	
Ac-ASHLRKLRKRLL-NH2 [AL-10-1, reference compound]	−6.21%	0 (less than 5% suppression)	
Ac-VSRKR-NH2 [VR-52]	12.63%	+++ (greater than 20% suppression)	
Ac-LRVRLASLLRKL-NH2 [VL-17-9, longer peptide (12 amino acids) used as positive control, reference compound]	30.95%	+++ (greater than 20% suppression)	reduced LDH release [1]: 31%; percentage decrease in LDH, 24 hours after exposure to NMDA compared to vehicle treated cultures ([1]; peptide 0.1 μM): 16.19%

Source: patent US12071469B2, “Peptide compounds for suppressing inflammation” (Duke University, priority 2011, dated 2024)
